# Test results as given in patent US10976307B2, “Whole cell assays and methods” (Celcuity Inc., priority 2012, dated 2021).
# What was measured:
# Type in all cases: cell-based, human
# [1] = tested on: Patient C2 colon cancer cells; assay: CELx Combination test, impedance biosensor CReMS; conditions: Patient C2 cells (printed Patient 2), single drug
# Protocol: The physiologic change of the C1 and C2 cells during the test was measured with an impedance biosensor CReMS and the output from the CReMS is recorded in FIGS. 3A and 3B.
# Between 6,000-12,000 cells in each well were seeded into the impedance microplate containing 120 uL settling media with serum. The solution was replaced with media containing no serum to synchronize the cells with respect to physiologic state. […] The CReMS recording of physiologic change was maintained continuously from when the cells were first seeded on the microplate through complete cellular response, which was between 48-72 hours. The test was performed at 37° C., 5% CO2 and at 75% relative humidity.
# [2] = tested on: breast cancer patient cells; assay: CELx Pathway Shutdown single drug test (Example 4), impedance biosensor CReMS; conditions: one patient breast cancer cell sample expected to be a responder
# Protocol: Between 6,000-12,000 cells in each well were seeded onto the impedance microplate containing 120 uL standard media with serum. The solution was replaced with media containing no serum to synchronize the cells with respect to physiologic state and pathway stimulation. Twenty microliters of drugs were added to the no-serum media two hours in advance of pathway stimulation. Pathway stimulation was initiated using EC80 doses of receptor ligand (typically 6 nM in 20 uL). The CReMS recording of physiologic change was maintained continuously for several hours from buffer exchange through complete cellular response to the pathway stimulation. The pathway test was performed at 37° C., 5% CO2 and at a relative humidity 75%.
# The physiologic change of the cells and drugs tested was measured with an impedance biosensor CReMS and the summary output from the CReMS is recorded in FIG. 4. The correlation between these CELx test results and the third party clinical reference is recorded in FIG. 7.
# In those experiments involving anti-proliferative drugs (capecitabine, docetaxel, fluorouracil, paclitaxel, topotecan, cisplatin, and oxiliplatin), the procedures described in Example 2 were utilized. In those experiments involving a combination of drugs, the procedures described in Example 3 were utilized. The list of patient cells and the drug tested with the cells is characterized in FIG. 4.
# [3] = tested on: Patient B1 breast cancer cells; assay: CELx Anti-Proliferative test, impedance biosensor CReMS; conditions: continuous recording throughout the test period, untreated control cells
# Protocol: (§1) A CELx Anti-Proliferative test was performed using cells from two breast cancer patients (Patients B1 and B2) and the drug Paclitaxel. The physiologic change of the Bland B2 cells during the test was measured with an impedance biosensor CReMS and the output from the CReMS is recorded in FIGS. 2A and 2B. The comparison of the CELx test results and the third party clinical reference is recorded in FIG. 2C.
# (§2) The CReMS, microplate, reagents, and buffers used in Example 1 are the same as those employed in Example 2, except for the therapeutic agent tested. In Example 2, the therapeutic agent, paclitaxel, was tested. Paclitaxel was purchased from Selleck Chemicals (TX, USA).
# (§3) Between 6,000-12,000 cells in each well were seeded onto the impedance microplate containing 120 uL settling media with serum. Forty microliters of the drug paclitaxel were added to one set each of the B1 and B2 cells; another control set of B1 and B2 cells received no drug. The CReMS recording of physiologic change was maintained continuously from when the cells were first seeded on the microplate through complete cellular response, which was between 48-72 hours. The test was performed at 37° C., 5% CO2 and at 75% relative humidity.
# [4] = tested on: Patient B2 breast cancer cells; assay: as above; conditions: continuous recording
# Protocol: as §1, §2, §3
# [5] = tested on: Patient B1 HER2 overexpressing breast cancer cells; assay: CELx Pathway Shutdown test, impedance biosensor CReMS, EGF stimulation; conditions: drug added two hours before EGF pathway stimulation, compared to stimulation with no drug
# Text: The change in impedance for a particular well is proportional to the number of cells and type of attachment the cells have with the impedance microplate. Changes in impedance indicate a response to perturbation of these small cell populations.
# Prior to addition to the impedance microplate, the cells were removed from their growth container with versene, counted, and re-suspended in media without serum or other growth factors.
# The solution was replaced with media containing no serum to synchronize the cells with respect to physiologic state and pathway stimulation. Twenty microliters of drugs were added to the no-serum media two hours in advance of pathway stimulation.
smiles,measurement,setting,value
"CCc1c2c(nc3ccc(OC(=O)N4CCC(N5CCCCC5)CC4)cc13)-c1cc3c(c(=O)n1C2)COC(=O)[C@]3(O)CC [irinotecan, Irinotecan]",responsiveness to each individual drug,[1],responsive
"COc1cc2ncnc(Nc3ccc(F)c(Cl)c3)c2cc1OCCCN1CCOCC1 [gelfitinib, gefitinib]",response in the CReMS testing,[2],did not show a response
CC(=O)O[C@H]1C(=O)[C@@]2(C)[C@H]([C@H](OC(=O)c3ccccc3)[C@]3(O)C[C@H](OC(=O)[C@H](O)[C@@H](NC(=O)c4ccccc4)c4ccccc4)C(C)=C1C3(C)C)[C@]1(OC(C)=O)CO[C@@H]1C[C@@H]2O [Paclitaxel],responsiveness: decrease in CReM output compared to control cells,[3],immediate and continuous responsiveness
same,"time after which CReM output reverses (test cells begin proliferating, no longer responsive)",[4],roughly 24 hours
same,responsiveness: decrease in CReM output compared to control cells,[4]; untreated control cells,initial responsiveness
"CS(=O)(=O)CCNCc1ccc(-c2ccc3ncnc(Nc4ccc(OCc5cccc(F)c5)c(Cl)c4)c3c2)o1 [lapatinib, Lapatinib]",change (decrease) of cell index of the test cells after drug added,[5],over 50%
